Reference: patent US5292732A, “Pyrrolopyrazine derivatives” (Hoffmann-La Roche Inc., priority 1991, dated 1994)

Tests used:
[1] = target: T1, MAO (substrate 5-HT) (Rattus norvegicus, UniProt P21396); assay: MAO inhibition in vitro, rat brain homogenate, substrate 14C-labelled serotonin (5-HT); type: biochemical; conditions: substrate 5-HT 2×10^-4 M, 37° C.
T1 construct: 20 μl of rat brain homogenate; from tissue; host or cells: rat brain homogenate
T1 sequence (P21396 1-526): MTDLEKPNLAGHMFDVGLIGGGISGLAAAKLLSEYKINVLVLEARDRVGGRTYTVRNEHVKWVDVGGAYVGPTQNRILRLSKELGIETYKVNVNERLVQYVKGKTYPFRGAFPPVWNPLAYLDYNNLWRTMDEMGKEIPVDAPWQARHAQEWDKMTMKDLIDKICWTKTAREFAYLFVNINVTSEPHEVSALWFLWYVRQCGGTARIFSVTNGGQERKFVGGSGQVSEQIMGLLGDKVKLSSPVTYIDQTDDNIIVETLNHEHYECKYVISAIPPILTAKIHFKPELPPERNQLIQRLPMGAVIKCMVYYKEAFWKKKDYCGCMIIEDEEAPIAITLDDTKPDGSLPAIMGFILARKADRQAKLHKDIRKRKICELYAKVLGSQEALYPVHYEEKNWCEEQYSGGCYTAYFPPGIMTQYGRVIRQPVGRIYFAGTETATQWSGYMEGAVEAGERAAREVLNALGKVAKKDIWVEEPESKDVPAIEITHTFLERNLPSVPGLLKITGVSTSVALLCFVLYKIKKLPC
Procedure: (§1) The MAO inhibiting activity of the compounds in accordance with the invention can be determined in vitro or ex vivo using standard methods. The preparations to be tested were investigated in the tests described hereinafter, which were based on the methods of R. J. Wurtmann and J. A. Axelrod [Biochem. Pharmac. 12, 1439-41 (1963).
(§2) Isolated rat brains are homogenized in 0.1 molar potassium phosphate buffer (pH 7.4) in the ratio 1:4 (weight/volume), the homogenate is diluted with the same buffer in the ratio 1:5 (volume/volume) and stored at -20° C. A mixture of the following composition was used for the incubation:
(§3) 100 μl of 1M phosphate buffer (pH 6.7);
(§4) 100 μl of solution of the substance to be tested in water or in 10% aqueous dimethyl sulphoxide;
(§5) 20 μl of rat brain homogenate; and as the substrate
(§6) 80 μl of ^14 C-labelled serotonin (5-HT) or ^14 C-labelled phenylethylamine (PEA), the radioactive concentration of which amounts to 100,000 decay per minute and which is used in a final concentration of 2×10^-4 M and, respectively, 2×10^-5 M.
(§7) A pre-incubation at 37° C. is effected for 30 minutes prior to the addition of the substrate. The incubation (in the presence of the substrate) is likewise effected at 37° C. and lasts for 10 minutes. The reaction is stopped by the addition of 200 μl of 2N hydrochloric acid.
(§8) In order to extract the desaminated product, the mixture is shaken for 10 minutes with 5 ml of diethyl ether or with 5 ml of n-heptane depending on whether 5-HT or PEA is used as the substrate, whereupon the mixture is centrifuged, the aqueous phase is frozen in a dry-ice bath, the organic phase is transferred into a counting glass and the radioactive concentration is determined in a β-counter.
(§9) The activity of the MAO in comparison to the control homogenates (without substance to be tested) is obtained on the basis of the β-values and the IC50 is defined as that concentration of a substance to be tested which reduces the activity of the MAO upon the substrate 5-HT or PEA by 50%.

[2] = target: T2, MAO (substrate PEA) (Rattus norvegicus, UniProt P19643); assay: MAO inhibition in vitro, rat brain homogenate, substrate 14C-labelled phenylethylamine (PEA); type: biochemical; conditions: substrate PEA 2×10^-5 M, 37° C.
T2 construct: 20 μl of rat brain homogenate; from tissue; host or cells: rat brain homogenate
T2 sequence (P19643 1-520): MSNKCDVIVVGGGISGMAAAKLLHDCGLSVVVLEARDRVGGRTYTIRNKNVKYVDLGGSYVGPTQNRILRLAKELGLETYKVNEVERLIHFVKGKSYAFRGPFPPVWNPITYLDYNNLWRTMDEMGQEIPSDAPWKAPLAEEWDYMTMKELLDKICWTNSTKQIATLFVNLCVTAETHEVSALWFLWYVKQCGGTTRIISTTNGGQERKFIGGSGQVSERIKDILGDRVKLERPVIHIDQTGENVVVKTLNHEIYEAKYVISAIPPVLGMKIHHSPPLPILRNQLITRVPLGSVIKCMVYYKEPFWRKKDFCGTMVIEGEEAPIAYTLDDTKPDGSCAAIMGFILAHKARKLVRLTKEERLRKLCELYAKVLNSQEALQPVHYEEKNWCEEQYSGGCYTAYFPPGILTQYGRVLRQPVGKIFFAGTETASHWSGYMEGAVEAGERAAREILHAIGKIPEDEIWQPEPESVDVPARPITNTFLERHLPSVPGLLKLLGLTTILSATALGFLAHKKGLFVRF
Procedure: as §1, §2, §3, §4, §5, §6, §7, §8, §9

[3] = tested on: MAO in the brain (substrate 5-HT); assay: MAO inhibition ex vivo in brain of rats, substrate 5-HT; design: species or system male albino rats (Fu-SPF); conditions: rat, 100 μmol/kg orally, 2 hrs., given in percentage of the control values
Procedure: as §1
(§10) The compounds to be tested are investigated for the inhibition of MAO in the brain and liver of male albino rats (Fu-SPF, 100-140 g. The test compounds are administered orally as a solution or suspension in water in a dosage of 100 μmol per kilogram body weight. After 2 hrs. the animals are narcotized and decapitated. The brain (without cerebellum) and a portion of the liver are dissected out and submitted analogously to the above-described procedure for the determination of the MAO inhibiting activity, whereby the amount of enzyme used is 20 μl of a 1:20 homogenate in the case of brain and 20 μl of a 1:80 homogenate in the case of liver. The activity of the compounds is determined from a comparison of the β-values with the values for control animals treated with vehicle and is given in percentage of the control values.

[4] = tested on: MAO in the brain (substrate PEA); assay: MAO inhibition ex vivo in brain of rats, substrate PEA; design: species or system male albino rats (Fu-SPF); conditions: rat, 100 μmol/kg orally, 2 hrs., given in percentage of the control values
Procedure: as §1, §10

[5] = tested on: MAO in the liver (substrate 5-HT); assay: MAO inhibition ex vivo in liver of rats, substrate 5-HT; design: species or system male albino rats (Fu-SPF); conditions: rat, 100 μmol/kg orally, 2 hrs., given in percentage of the control values
Procedure: as §1, §10

[6] = tested on: MAO in the liver (substrate PEA); assay: MAO inhibition ex vivo in liver of rats, substrate PEA; design: species or system male albino rats (Fu-SPF); conditions: rat, 100 μmol/kg orally, 2 hrs., given in percentage of the control values
Procedure: as §1, §10

| Compound | IC50 [1] [nM] | IC50 [2] [nM] | Remaining brain MAO activity, 5-HT (% of control) [3] [%] | Remaining brain MAO activity (PEA), % of control [4] [%] | MAO inhibition, Liver, 5HT [5] [%] | Remaining liver MAO activity (PEA), % of control [6] [%] |
| --- | --- | --- | --- | --- | --- | --- |
| CC1=NCCn2c1cc1c2-c2ccc(C)cc2CC1 [5,6,10,11-tetrahydro-3,8-dimethylbenzo[g]pyrazino[1,2-a]indole] | 2 | > 1000 | 43 | 82 | 17 | 96 |
| CC1=NCCn2c1cc1c2-c2ccc(OC(C)C)cc2CC1 [5,6,10,11-tetrahydro-3-isopropoxy-8-methylbenzo[g]pyrazino[1,2-a]indole] | 0.4 | 14 | 8 | 60 | 10 | 75 |
| CC1=NCCn2c1ccc2-c1ccc(OC2CCCC2)cc1 [6-[p-(Cyclopentyloxy)phenyl]-3,4-dihydro-1-methylpyrrolo[1,2-a]pyrazine] | 10 | < 1 | 67 | 33 | 38 | 56 |
